Data published in PMC7269513 (Antimicrobial Agents and Chemotherapy, 2020).
“And” between values parts separate entries of the source, which are not always exact repeats. Identical values can stand only once.

Key:
KPC-2 [1] = target: T1, KPC-2 (Klebsiella pneumoniae, UniProt Q9F663); assay: IC50 of beta-lactamase inhibition (nitrocefin hydrolysis); assay type: biochemical; conditions: KPC-2, class A; substrate nitrocefin; 10 min preincubation at 37°C; read-out: IC50 (nM) of drug
CTX-M-14 = CTX-M-14 (Escherichia coli, UniProt Q9L5C7); assay: as above; assay type: biochemical; conditions: read-out: IC50 (nM) of drug
SHV-12 [2] = target: T2, SHV-12 (Klebsiella pneumoniae, UniProt P0AD64, E235K/G234S/L31Q); assay: as above; assay type: biochemical; conditions: read-out: IC50 (nM) of drug
CTX-M-15 [3] = target: T3, CTX-M-15 (Escherichia coli, UniProt Q9EXV5); assay: as above; assay type: biochemical; conditions: read-out: IC50 (nM) of drug
Protocol: (§1) […]; Initial rates of reaction were calculated and exported to Prism software to calculate IC50 values using the “dose-response—inhibition, variable slope (four parameters)” equation. Ki values were calculated by the method of Waley ([31]). This method was previously used to calculate Ki values for boronic fast-on–fast-off BLIs.

P99 [4] = target: T4, P99 (Enterobacter cloacae, UniProt P05364); assay: as above; assay type: biochemical; conditions: P99, class C; substrate nitrocefin; 10 min preincubation at 37°C; read-out: IC50 (nM) of drug
Protocol: as §1

OXA-48 [5] = target: T5, OXA-48 (Klebsiella pneumoniae, UniProt Q6XEC0); assay: as above; assay type: biochemical, Enterobacteriaceae; conditions: read-out: IC50 (nM) of drug
OXA-23 [6] = target: T6, OXA-23 (Acinetobacter baumannii, UniProt Q9L4P2); assay: as above; assay type: biochemical; conditions: read-out: IC50 (nM) of drug
VIM-1 [7] = target: T7, VIM-1 (Pseudomonas aeruginosa, UniProt A0A0F7KYQ8); assay: as above; assay type: biochemical; conditions: read-out: IC50 (nM) of drug
IMP-1 [8] = target: T8, IMP-1 (Serratia marcescens, UniProt P52699); assay: IC50 of beta-lactamase inhibition (imipenem hydrolysis); assay type: biochemical
SHV-12 [9] = target: T2, SHV-12; assay: biochemical; conditions: derived from the ratio of koff and k2/K
CTX-M-15 [10] = target: T3, CTX-M-15; assay: koff of enzyme activity recovery, jump dilution method; assay type: biochemical; conditions: derived from the ratio of koff and k2/K
Protocol: (§2) Enzyme at a 1 μM concentration in buffer A was mixed with BLI at an 8-fold-higher concentration than its stoichiometry ratio (determined in preliminary stoichiometry experiments). […].

KPC-2 [11] = target: T1, KPC-2; assay: as above; assay type: biochemical; conditions: derived from the ratio of koff and k2/K
Protocol: as §2

KPC-3 [12] = target: T9, KPC-3 (Klebsiella pneumoniae, UniProt Q9F663, H272Y); assay: as above; assay type: biochemical; conditions: derived from the ratio of koff and k2/K
Protocol: as §2

OXA-23 [13] = target: T6, OXA-23; assay: as above; assay type: biochemical; conditions: derived from the ratio of koff and k2/K
Protocol: as §2

OXA-24 [14] = target: T10, OXA-24 (Acinetobacter baumannii, UniProt Q8RLA6); assay: as above; assay type: biochemical; conditions: derived from the ratio of koff and k2/K
Protocol: as §2

OXA-58 [15] = target: T11, OXA-58 (Acinetobacter baumannii, UniProt Q2TR58); assay: as above; assay type: biochemical; conditions: derived from the ratio of koff and k2/K
Protocol: as §2

P99 [16] = target: T4, P99; assay: as above; assay type: biochemical; conditions: derived from the ratio of koff and k2/K
Protocol: as §2

SME-2 [17] = target: T12, SME-2 (Serratia marcescens, UniProt P52682, V207Q); assay: as above; assay type: biochemical; conditions: derived from the ratio of koff and k2/K
Protocol: as §2

OXA-48 [18] = target: T5, OXA-48; assay: as above; assay type: biochemical, Enterobacteriaceae; conditions: derived from the ratio of koff and k2/K
Protocol: as §2

BKC-1 = BKC-1 (Klebsiella pneumoniae, UniProt A0A0F6QEY8); assay: Stoichiometry of beta-lactamase inhibition; assay type: biochemical; conditions: minimal BLI/enzyme ratio reducing enzyme activity by at least 90%
Protocol: (§3) Purified enzyme at 1 μM concentration in buffer A was mixed with BLI at a BLI/enzyme ratio varying from 128 to 0.0625. […]. Stoichiometry of inhibition was determined as a minimal BLI/enzyme ratio reducing enzyme activity by at least 90%.

FRI-1 = FRI-1 (Enterobacter cloacae, UniProt A0A0M5L4T8); assay: Stoichiometry of beta-lactamase inhibition; assay type: biochemical; conditions: minimal BLI/enzyme ratio reducing enzyme activity by at least 90%
Protocol: as §3

KPC-3 [19] = target: T9, KPC-3; assay: Stoichiometry of beta-lactamase inhibition; assay type: biochemical; conditions: minimal BLI/enzyme ratio reducing enzyme activity by at least 90%
Protocol: as §3

SHV-12 [20] = target: T2, SHV-12; assay: Stoichiometry of beta-lactamase inhibition; assay type: biochemical; conditions: minimal BLI/enzyme ratio reducing enzyme activity by at least 90%
Protocol: as §3

SME-2 [21] = target: T12, SME-2; assay: Stoichiometry of beta-lactamase inhibition; assay type: biochemical; conditions: minimal BLI/enzyme ratio reducing enzyme activity by at least 90%
Protocol: as §3

TEM-43 = TEM-43 (Escherichia coli, UniProt P62593, E102K/M180T/R162H, species not given); assay: Stoichiometry of beta-lactamase inhibition; assay type: biochemical; conditions: minimal BLI/enzyme ratio reducing enzyme activity by at least 90%
Protocol: as §3

CTX-M-15 [22] = target: T3, CTX-M-15; assay: Stoichiometry of beta-lactamase inhibition; assay type: biochemical; conditions: minimal BLI/enzyme ratio reducing enzyme activity by at least 90%
Protocol: (§4) […]. Stoichiometry of inhibition was determined as a minimal BLI/enzyme ratio reducing enzyme activity by at least 90%.

KPC-2 [23] = target: T1, KPC-2; assay: Stoichiometry of beta-lactamase inhibition; assay type: biochemical; conditions: minimal BLI/enzyme ratio reducing enzyme activity by at least 90%
Protocol: as §4

OXA-23 [24] = target: T6, OXA-23; assay: Stoichiometry of beta-lactamase inhibition; assay type: biochemical; conditions: minimal BLI/enzyme ratio reducing enzyme activity by at least 90%
Protocol: as §4

OXA-24 [25] = target: T10, OXA-24; assay: Stoichiometry of beta-lactamase inhibition; assay type: biochemical; conditions: minimal BLI/enzyme ratio reducing enzyme activity by at least 90%
Protocol: as §4

OXA-48 [26] = target: T5, OXA-48; assay: Stoichiometry of beta-lactamase inhibition; assay type: biochemical; conditions: minimal BLI/enzyme ratio reducing enzyme activity by at least 90%
Protocol: as §4

OXA-58 [27] = target: T11, OXA-58; assay: Stoichiometry of beta-lactamase inhibition; assay type: biochemical; conditions: minimal BLI/enzyme ratio reducing enzyme activity by at least 90%
Protocol: as §4

P99 [28] = target: T4, P99; assay: Stoichiometry of beta-lactamase inhibition; assay type: biochemical; conditions: minimal BLI/enzyme ratio reducing enzyme activity by at least 90%
Protocol: as §4

IMP-1 [29] = target: T8, IMP-1; assay: Ki of competitive MBL inhibition (method of Waley); assay type: biochemical
Protocol: as §1

VIM-1 [30] = target: T7, VIM-1; assay: Ki of competitive MBL inhibition (method of Waley); assay type: biochemical
Protocol: as §1

[31] = tested on: strain producing cloned L1 from Stenotrophomonas maltophilia; conditions: strain producing cloned L1 (B3 subclass MBL); cited from earlier work
[32] = Kd values for MBLs were based on Kis

## O=C(O)c1c(F)ccc2c1OB(O)[C@@H]1C[C@H]21 [QPX7728]
KPC-2 [1]
  IC50: 2.9 ± 0.4 nM
CTX-M-14
  IC50: 0.94 ± 0.2 nM
SHV-12 [2]
  IC50: 1.9 ± 0.6 nM
CTX-M-15 [3]
  IC50: 1.2 ± 0.1 nM
P99 [4]
  IC50: ~22 nM and 22 nM
OXA-48 [5]
  IC50: 1 nM and 1.1 nM
OXA-23 [6]
  IC50: 1 nM and 1.2 nM
VIM-1 [7]
  IC50: 14 ± 4 nM
IMP-1 [8]
  IC50: 610 ± 70 nM
SHV-12 [9]
  Kd: 28 ± 4 nM
CTX-M-15 [10]
  Kd: 0.11 ± 0.02 nM
KPC-2 [11]
  Kd: 0.25 ± 0.03 nM
KPC-3 [12]
  Kd: 0.31 ± 0.06 nM
OXA-23 [13]
  Kd: 1.6 ± 0.2 nM
OXA-24 [14]
  Kd: 0.58 ± 0.1 nM
OXA-58 [15]
  Kd: 3.2 ± 0.3 nM
P99 [16]
  Kd: 0.53 ± 0.06 nM
SME-2 [17]
  Kd: 0.15 ± 0.02 nM
OXA-48 [18]
  Kd: 0.13 ± 0.01 nM
BKC-1
  Stoichiometry: 1
FRI-1
  Stoichiometry: 1
KPC-3 [19]
  Stoichiometry: 1
SHV-12 [20]
  Stoichiometry: 1
SME-2 [21]
  Stoichiometry: 1
TEM-43
  Stoichiometry: 1
CTX-M-15 [22]
  Stoichiometry: 1
KPC-2 [23]
  Stoichiometry: 1
OXA-23 [24]
  Stoichiometry: 2
OXA-24 [25]
  Stoichiometry: 1
OXA-48 [26]
  Stoichiometry: 1
OXA-58 [27]
  Stoichiometry: 1
P99 [28]
  Stoichiometry: 1
IMP-1 [29]; [32]
  Kd: 240 ± 30 nM
IMP-1 [29]; competitive, fast-on–fast-off
  Ki: 240 ± 30 nM
VIM-1 [30]; [32]
  Kd: 7.5 ± 2.1 nM
VIM-1 [30]; competitive, fast-on–fast-off
  Ki: 7.5 ± 2.1 nM
[31]
  ability to reduce MICs of meropenem and ceftazidime: inability
